# Source: patent publication US20240091217A1, “STABLE PHARMACEUTICAL ORAL LIQUID FORMULATION OF AN ANTISPASMODIC AGENT” (priority 2022, published 2024)
# Columns and labels:
# [1] = Degradation of Drotaverine HCl under stress conditions; format: physicochemical; conditions: alkaline medium, higher oxidative stress conditions, presence of light
# Description: In some embodiments, the disclosed formulations employ very few excipients, all of which are completely safe for pediatric patients, economical, and readily available.
# [2] = Solubilizing Drotaverine HCl in dispersion media of sorbitol liquid, glycerin and water, storage; format: physicochemical; conditions: glycerin, water 1:1:1 to 3:2:1, no stabilizing agent
# Description: The inventors of the present disclosure tried solubilizing Drotaverine HCl in a ratio of dispersion media containing sorbitol liquid, glycerin, and water ranging from 1:1:1 to 3:2:1, respectively. […] To obtain a physically and chemically stable product with good shelf life, the present inventors resolved this precipitation of Drotaverine in the proposed dispersion media. In order to avoid the precipitation of Drotaverine, the present inventors added a stabilizing agent to the dispersion media.
# [3] = cited from earlier work
# [4] = cited from earlier work; remark: listed apart in the source
smiles,measurement,setting,value
"CCOc1ccc(C=C2NCCc3cc(OCC)c(OCC)cc32)cc1OCC [Drotaverine, 1-[(3,4-diethoxyphenyl)methylene]-6,7-diethoxy-1,2,3,4-tetrahydroisoquinoline]",degradation,[1],degrades extensively
same,precipitation on storage,[2],re-precipitated on storage
same,onset of action,[3]; after oral administration of 80 mg strength IR tablets,≤ 12 min
same,renal clearance as share of the total plasma clearance,"[3]; humans, Drotaverine IR tablets 80 mg",0.31+/−0.13%
same,Absolute bioavailability (range),"[3]; humans, oral, subject dependent",24.5-91%
same,"Absolute bioavailability, mean (mean+/-SD)","[3]; humans, oral",58.2+/−18.2%
same,oral LD50,[4],> 1000 mg/Kg body weight
